From PMC6033896, “Discovery of Mcl-1 inhibitors from integrated high throughput and virtual screening” (Scientific Reports, 2018)
Values joined by “and” are separate entries in the source; they are usually repeats but may differ in a detail not shown here. Identical values can stand only once. “Also recorded” adds a separate entry of the source.

Key:
Mcl-1 protein [1] = molecular target: T1, Mcl-1 protein (Homo sapiens, UniProt Q07820); assay: FP-based competitive binding assay with fluorescent labelled Bid BH3 peptide; details: for Ki: calculated from FP IC50; for IC50: competition with fluorescent Bid probe 2 nM, 20 nM Mcl-1 for purchased compounds, 10 nM for synthesized library
T1 construct: human Mcl-1 (residues 171–323); His tag (pHis-TEV vector) (N, cleaved yes); made in house; host or cells: E. coli BL21 (DE3)
Description: FP-based binding assays were developed and optimized to determine the binding affinities of inhibitors to the recombinant Mcl-1, Bcl-2, Bcl-xL, and Bfl-1, proteins. […] The fluorescent Bid probe was fixed at 2 nM for all assays, except for Bfl-1, where 1 nM was used. 5 μL of the tested compound in DMSO and 120 μL of protein/probe complex in the assay buffer were added to assay plates (Corning #3792), incubated at room temperature for 3 h, and the polarization values (mP) were measured at an excitation wavelength of 485 nm and an emission wavelength of 530 nm using the plate reader Synergy H1 Hybrid, BioTek. IC50 values were determined by nonlinear regression fitting of the competition curves (GraphPad Prism 6.0 Software). The Ki values were calculated as described previously.
1. List of compounds purchased from vendors
Compound s 5, 6, 7, 8 and S3, S4, S5, S6 S7, S8, S9, S10, S17 were purchased from […]
Compound s 9, 10, 11 and S11, S12, S13 were purchased from I nterbioscreen […]
His-tagged proteins containing human Mcl-1 (residues 171–323), the isoform 2 construct of the human Bcl-2 [Bcl2-2 construct for protein production starts with the Bcl2 sequence of 1-34 a a, followed by the Bcl-xL seq uence of 35-50 aa, and ends with the Bcl-2 sequenc e of 92-202aa.], Bcl-xL (Human Bcl-xL protein, which has an internal deletion for the 45 -85 amino acid residues and a C -terminal truncation for the amino acid residues 212-233), and Bf l-1 (residues 1-151), were expres sed from the pHis -TEV vector (a modified pET vector) in E. coli BL21 (DE3) cells. Cells were grown at 37 °C in 2×YT containing antibiotics to an OD600 density of 1.5, 1 and 0.8 for Mcl-1, Bcl-xL and Bcl-2 respectively. Protein expression wa s induced by 0 .4 mM IPTG at 20 °C overnight for all proteins except for Bf l-1 which was e xpressed at 3 7 °C for four hours . Cells were lysed in 20 mM HEPES pH 7.5, 200 mM NaCl, 0.1% βME with Leupeptin/Aprotinin (Mcl-1), 25mM Tris pH 8.5, 200mM NaCl (Bcl-2), 50mM Tris pH 7.5, 200 mM NaCl (Bcl-xL) and 50 mM Tris pH 8, 500 mM NaCl, 0. 1% βME with Leupeptin/Aprotinin (Bf l-1). All […]
proteins were purified from the soluble fraction using Ni-NTA resin (QIAGEN), following the manufacturer’s instructions. For purification of TEV-cleaved protein, the amino-terminal His tag was cleaved by incubation with TEV protease and the protein was further purified by anion exchange (Source Q) and gel filtration chromatography (Superdex 75, Amersham Biosciences) in 20mM HEPES pH 7.0, 50 mM NaCl (Mcl-1), […]
NaCl, 0.1% βME (Bcl-xL) and 25 mM Tris pH 7.5, 150 mM NaCl, 25% Glycerol, 0.1% βME ( Bf l-1). His-tagged Mcl-1 protein was used for TR-FRET assay and HSQC-NMR.
His-TEV cleaved Mcl-1, Bcl-2, Bcl-xL, and Bf l-1 were used in fluorescent polarization and surface plasmon resonance binding assays.
Mutant Mcl-1 protein wa s prepared by the QuikChange site -directed mutagenesi s method (Stratagene) , where Arg263 was mutated to Ala. The R263A expression pla smid was transformed into Rosetta2 DE3 cells and purified by the same method as the wildtype protein. Cultures were grown to an OD 600 of 1. 5 at 37 °C in Terrific Broth, induced with 0. 4 mM IPTG, and express ed overnight at 20 °C. The follow-up purification was performed the same way as was for Mcl-1 wild-type recombinant

[2] = tested on: Bax/Bak double knockout (DKO) MEFs; assay: MEF cell death, propidium iodide flow cytometry; assay type: cell-based, mouse
Description: (§1) MEF cells, including wild-type, Bax/Bak double knockout, Bax−/− single knockout, and Bak−/− single knockout were tested and characterized (Supplementary Fig. S3). The cells were cultured in DMEM (Life Technologies), supplemented with 10% fetal bovine serum (FBS) (Thermo Scientific HyClone) and 1% Penicillin/streptomycin solution (Life Technologies). The retrovirally transduced lymphoma cells isolated from Eμ-myc transgenic mice were provided by Ricky W. Johnstone at the University of Melbourne, Melbourne, Australia and cultured as previously described[37],[65].
(§2) MEFs were seeded in 24-well plates at 0.5 × 10^5 cells/well, left to adhere for 5 hours and then treated for 15 hours with increasing concentrations of the compounds. The cells were harvested, washed with phosphate-buffered saline (PBS) and stained with 0.025 mg/ml propidium iodide (MP Biomedicals). The percentage of the propidium iodide positive population was determined by flow cytometry and calculated using WinList 3.0.

wild-type MEFs = assay: MEF cell death, propidium iodide flow cytometry; assay type: cell-based, mouse
Description: as §1, §2

Mcl-1 protein [3] = molecular target: T1, Mcl-1 protein; assay: SPR-based solution competitive binding assay, immobilized biotin-labelled Bim BH3 peptide; details: Mcl-1 20 nM; competition with immobilized Bim BH3 peptide
Description: The solution competitive SPR-based assay was performed on Biacore 2000 in a similar way as was already reported. Briefly, N terminal biotin-labelled Bim BH3 peptide (141–166 amino acids) was immobilized on streptavidin (SA) chip giving a density of 800 RU (Response Units). The pre-incubated Mcl-1 protein (20 nM) with tested small-molecule inhibitors for at least 30 min was injected over the surfaces of the chip using assay buffer HBS-P (GE, #BR100368). Response units were measured at 15 s in the dissociation phase, and IC50 values were determined by nonlinear least-squares analysis using GraphPad Prism 6.0 software.

endogenous Mcl-1 = molecular target: T2, endogenous Mcl-1 (Homo sapiens, UniProt Q07820); assay: Biotin-streptavidin pulldown with BL-Noxa, 2LMP whole cell lysate; assay type: binding
T2 construct: endogenous in cells; host or cells: 2LMP (subclone of MDA-MB-231), whole cell lysate
Description: 2LMP cells, a subclone of MDA-MB-231, were harvested (~15 × 10^6) and lysed via sonication with CHAPS buffer (10 mM HEPES pH 7.4, 2.5 mM EDTA, 150 mM NaCl, 1% (w/v) CHAPS, pH 7.4). […] Protein-peptide complexes were pulled down with agarose beads for 2 hrs. Beads were washed with CHAPS buffer and Mcl-1 protein was eluted by boiling in SDS-PAGE loading dye. Samples were analysed by western blotting with the Mcl-1 antibody (Thermo Scientific #MS-681-P1).

[4] = 100 µM of hits (15: 10, 20, 30 µM), 15-hour treatment, propidium iodide
[5] = increasing concentrations, 15 h

T1 sequence (Q07820 171-323): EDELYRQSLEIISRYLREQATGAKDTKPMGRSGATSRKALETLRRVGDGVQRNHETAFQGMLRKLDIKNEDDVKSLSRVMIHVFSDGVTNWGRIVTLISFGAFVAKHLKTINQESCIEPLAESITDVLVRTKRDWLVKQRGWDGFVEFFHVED
T2 sequence (Q07820 whole entry): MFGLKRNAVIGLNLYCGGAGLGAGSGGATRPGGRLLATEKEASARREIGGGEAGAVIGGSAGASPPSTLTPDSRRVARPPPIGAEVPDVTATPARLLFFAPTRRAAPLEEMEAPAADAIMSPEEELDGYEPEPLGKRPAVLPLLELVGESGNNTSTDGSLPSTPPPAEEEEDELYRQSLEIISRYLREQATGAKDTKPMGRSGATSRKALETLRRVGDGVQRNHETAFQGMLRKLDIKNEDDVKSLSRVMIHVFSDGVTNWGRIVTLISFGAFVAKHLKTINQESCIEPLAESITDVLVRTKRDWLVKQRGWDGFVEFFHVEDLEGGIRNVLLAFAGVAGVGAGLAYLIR

## O=C(CSc1nnc(-c2ccco2)c(-c2ccco2)n1)Nc1ccccc1 [Compound 19]
Mcl-1 protein [1]
  Ki: 3.2 ± 0.3 µM
  IC50: 13 µM and 13.8 µM
[2]; [4]
  cell death induction in Bax/Bak DKO MEFs, screening of hits: without significant cell death induction
wild-type MEFs; [4]
  cell death induction in wild-type MEFs, screening of hits: inducing cell death
Mcl-1 protein [3]
  IC50: 13 µM and 13.4 µM

## O=C(CSc1nnc(-c2ccco2)c(-c2ccco2)n1)Nc1cccc(C(F)(F)F)c1 [Compound 39]
Mcl-1 protein [1]
  Ki: 1.2 ± 0.1 µM
  IC50: 5.1 ± 0.5 µM
[2]; [5]
  cell death in Bax/Bak DKO MEFs: rescued the cells
wild-type MEFs; [5]
  cell death in wild-type MEFs: induces Bax/Bak-dependent cell death; also recorded: dose-dependent increase in cell death
Mcl-1 protein [3]
  IC50: 6.3 ± 0.6 µM
Endogenous Mcl-1
  disruption of BL-Noxa binding to endogenous Mcl-1: dose-dependent blocking

## c1ccc(CCCCSc2nnc(-c3ccco3)c(-c3ccco3)n2)cc1 [Compound 44]
Mcl-1 protein [1]
  Ki: 0.3 ± 0.1 µM
  IC50: 1.4 ± 0.2 µM
Endogenous Mcl-1
  disruption of BL-Noxa binding to endogenous Mcl-1: dose-dependent blocking
